Test results reported in PubChem BioAssay (NCI).
Several values for one entry are separate records, joined by “and”; a condition that tells them apart may be missing. Equal values may be shown once.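 1) Cells in 96-well plates. 2) Compound, 48 h, 5 concentrations. 3) Linear interpolation between surrounding doses. 4) Unreached endpoint = highest concentration. The concentration for 50% growth inhibition is given as GI50. TGI is the concentration that stops growth completely.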

Tests used:
Assay in all cases: growth of human tumour cells (NCI), 48 h
HCC-2998 colon = system: HCC-2998 colon
HCT-116 colon = system: HCT-116 colon
HT29 colon = system: HT29 colon
K-562 leukemia = system: K-562 leukemia
LOX IMVI melanoma = system: LOX IMVI melanoma
MALME-3M melanoma = system: MALME-3M melanoma
NCI-H460 lung = system: NCI-H460 lung
SN12C renal = system: SN12C renal
SR leukemia = system: SR leukemia
UO-31 renal = system: UO-31 renal

Compound | GI50 (HCC-2998 colon) | TGI (HCC-2998 colon) | GI50 (HCT-116 colon) | TGI (HCT-116 colon) | GI50 (HT29 colon) | TGI (HT29 colon) | GI50 (K-562 leukemia) | TGI (K-562 leukemia) | GI50 (LOX IMVI melanoma) | TGI (LOX IMVI melanoma) | GI50 (MALME-3M melanoma) | TGI (MALME-3M melanoma) | GI50 (NCI-H460 lung) | TGI (NCI-H460 lung) | GI50 (SN12C renal) | TGI (SN12C renal) | GI50 (SR leukemia) | TGI (SR leukemia) | GI50 (UO-31 renal) | TGI (UO-31 renal)
O=[N+]([O-])c1ccc(N2CCN(Cc3ccccc3)CC2)c2c1no[n+]2[O-] | 1.78 µM | 3.33 µM | 0.95 µM | 2.38 µM | 0.829 µM | 2.12 µM | 1.05 µM | 2.98 µM | 0.558 µM | 1.67 µM | 1.6 µM | 3.3 µM | 1.61 µM | 3.52 µM | 1.63 µM | 3.53 µM | 0.0751 µM | 0.973 µM | 1.28 µM | 2.59 µM
COC(=O)/C=C/c1cc(O)c2c(c1)C(C(=O)OC)C(c1ccc(O)c(O)c1)O2 (stereo not drawn) | 1.53 µM and 0.558 µM | 72.7 µM and > 46.9 µM | 0.104 µM and 0.0405 µM | > 100 µM | 3.89 µM and 1.75 µM | > 57.6 µM and 24.1 µM | < 0.0419 µM and 0.0462 µM | > 100 µM | 0.17 µM and 0.0633 µM | 36 µM and > 67.1 µM | 12.5 µM and 17.7 µM | 62 µM and 86.1 µM | 1.46 µM and 0.363 µM | 12.3 µM and 12.1 µM | 0.614 µM | > 100 µM | 0.051 µM and 0.0369 µM | > 54.9 µM and 6 µM | 0.855 µM and 0.301 µM | 23.6 µM and 30.7 µM
CC1=CC=NN2C(=O)[C@H](C)C2C1 (stereo partly drawn) |  | > 100 µM |  | > 100 µM |  | > 100 µM |  | > 100 µM |  | > 100 µM |  | > 100 µM |  | > 100 µM |  | > 100 µM |  | > 100 µM |  | > 100 µM
Cc1[nH]c(=O)[nH]c(=O)c1N(CCF)CCCl | 220 µM | 606 µM and 668 µM and 751 µM | 243 µM and 491 µM | 662 µM and 1570 µM and 1010 µM |  | 1370 µM and 1230 µM | 403 µM and 215 µM | 757 µM and 1350 µM and 1110 µM | 236 µM and 290 µM and 139 µM | 726 µM and 671 µM and 787 µM | 219 µM and 393 µM | 410 µM and 757 µM and 721 µM | 118 µM and 264 µM and 171 µM | 689 µM and 834 µM and 633 µM | 159 µM and 120 µM and 312 µM | 480 µM and 641 µM and 1020 µM |  | 1870 µM | 723 µM and 245 µM | 1940 µM and 1110 µM
O=C(O)c1ccc(S(=O)(=O)c2ccccc2)c([N+](=O)[O-])c1 |  | > 100 µM |  | > 100 µM |  | > 100 µM |  | > 100 µM |  | > 100 µM |  | > 100 µM |  | > 100 µM |  | > 100 µM |  | > 100 µM |  | > 100 µM
C/C(=N\N=C(N)N)C(CN(CC(C)C)CC(C)C)C(=O)Nc1ccc(C)cc1C (stereo not drawn) |  | > 100 µM |  | > 100 µM |  | > 100 µM |  | > 100 µM |  | > 100 µM |  | > 100 µM |  | > 100 µM |  | > 100 µM |  | > 100 µM |  | > 100 µM
COc1cc2oc(=O)cc(C)c2cc1[N+](=O)[O-] |  | 22.2 µM |  | 32.3 µM |  | > 57.8 µM |  | > 100 µM |  | 28.6 µM |  | 49.5 µM |  | > 100 µM |  | 37.2 µM |  | > 100 µM |  | > 87.6 µM
CN(C)CCCCN1CCc2c(n(C)c3ccccc23)C1=O | 39.7 µM and 15.9 µM | 64.3 µM and 30.3 µM |  | 75.6 µM and 45.1 µM |  | 63.4 µM and 37.9 µM |  | 51.9 µM and > 59.4 µM |  | > 72.9 µM and 42.8 µM |  | 43.6 µM and 36.3 µM | 54.6 µM and 24.2 µM | > 87.1 µM and 49.8 µM |  | > 90.1 µM and 98 µM | 53.3 µM and 12.7 µM | > 100 µM and 35.9 µM |  | > 76.3 µM and 46.7 µM
O=C1C2C(C(=O)N1O)N(Cc1ccccc1)C(=O)N2Cc1ccccc1 (stereo not drawn) |  | > 100 µM |  | > 100 µM |  | > 100 µM |  | > 100 µM |  | > 100 µM |  | > 100 µM |  | > 100 µM |  | > 100 µM |  | > 100 µM |  | > 100 µM
O=[N+]([O-])c1cnc(Sc2ccncn2)c([N+](=O)[O-])c1 | 18.4 µM | 36.2 µM | 1.84 µM | 3.59 µM | 9.75 µM | 31.8 µM | 2.85 µM | 29.9 µM | 3.1 µM | 10.6 µM | 1.83 µM | 3.61 µM | 23 µM | 49.4 µM | 16 µM | 29.9 µM | 2.67 µM | > 100 µM | 1.55 µM | 2.98 µM
c1ccc(N=C2c3ccccc3CN2c2ccccc2)cc1 |  | > 100 µM |  | > 100 µM |  | > 100 µM |  | > 100 µM |  | > 100 µM |  | > 100 µM |  | > 100 µM |  | > 100 µM |  | > 100 µM |  | > 100 µM
Cc1ccc(Nc2nc(NCCO)c3ccccc3n2)cc1C | 2.44 µM | 5.96 µM | 3.95 µM | 14.5 µM | 3.25 µM | 10.6 µM | 3.19 µM | 13 µM | 3.55 µM | 12.4 µM | 1.85 µM | 3.77 µM | 4.44 µM | 16.7 µM | 10.3 µM | 24.4 µM | 2.28 µM | 6.08 µM | 5.01 µM | 19 µM
CCC/C(=N\NC(=S)N1CCN(c2ccccn2)CC1)c1ccccn1 | 0.0462 µM | 1.64 µM and 1.59 µM |  | > 3.55 µM |  | > 5.39 µM |  | 0.11 µM |  | 3.19 µM and 1.54 µM |  | 0.565 µM and 2.07 µM |  | > 4.19 µM | 0.339 µM | 1.94 µM and 1.46 µM |  | 0.117 µM | 0.0529 µM | 3.42 µM and 1.44 µM
C[Si](C)(C)C#CCO[Si](C)(C)C |  | > 100 µM |  | > 100 µM |  | > 100 µM |  | > 100 µM |  | 19.9 µM |  | > 100 µM |  | > 100 µM |  | > 100 µM |  | > 61.5 µM |  | > 100 µM
CCOC(=N)CC(=O)Nc1ccc(Cl)cc1 |  | > 100 µM |  | > 100 µM |  | > 100 µM |  | > 100 µM |  | > 100 µM |  | > 100 µM |  | > 100 µM |  | > 100 µM |  | > 100 µM |  | > 100 µM
CNc1ccccc1C(=O)N/N=C/C=C/c1ccccc1 | 8.82 µM | 36.3 µM | 0.499 µM | > 100 µM | 0.373 µM | 12.9 µM | 0.44 µM | > 100 µM | 1.34 µM | > 100 µM | 9.91 µM | 97.4 µM | 0.503 µM | > 41.9 µM | 3.22 µM | > 100 µM | 0.402 µM | > 88.8 µM | 8.08 µM | 97.9 µM
S=CN1CCCCC1 |  | > 100 µM |  | > 100 µM |  | > 100 µM |  | > 100 µM |  | > 100 µM |  | > 100 µM |  | > 100 µM |  | > 100 µM |  | > 100 µM |  | > 100 µM
CN(C)c1ccc(-c2cc(=O)c3ccccc3[nH]2)cc1 |  | > 100 µM |  | > 100 µM |  | > 100 µM |  | > 100 µM |  | > 100 µM |  | > 100 µM |  | > 100 µM |  | > 100 µM |  | > 100 µM |  | > 100 µM
CN/N=C(/Cc1occc(=O)c1O)C(=O)Nc1ccc(C)c(C)c1 |  | > 100 µM |  | > 100 µM |  | > 100 µM |  | > 100 µM |  | > 100 µM |  | > 100 µM |  | > 100 µM |  | > 100 µM |  | > 100 µM |  | > 100 µM
Nc1c(C(=O)Nc2ccccc2)sc2nc3c(cc12)CCCCCC3 | 0.485 µM |  | 0.328 µM | 4.85 µM | 0.303 µM | 1.43 µM | 0.307 µM | > 41.3 µM | 0.772 µM | > 49.4 µM | 1.29 µM | 19.4 µM | 0.352 µM | 3.91 µM | 1.57 µM | 60.2 µM | 0.138 µM | 30.9 µM | 0.945 µM | 11.9 µM
CCC1=C(C)/C(=C/c2[nH]c(C)c(C(=O)CCCCC(=O)OC)c2C)N=C1c1ccc[nH]1 | 22.3 µM | 54.1 µM | 7.37 µM | > 50.1 µM | 5.11 µM | 38.4 µM | 3.47 µM | 16.7 µM | 2.89 µM | > 32.3 µM | 13.7 µM | 45.1 µM | 37.6 µM | > 100 µM | 22.2 µM | > 100 µM | 1.3 µM | 5.49 µM | 8.78 µM | 25.5 µM
C=C1C(=O)O[C@H]2[C@H]1CC/C(COC(=O)C(=O)c1c[nH]c3ccccc13)=C\CC[C@@]1(C)O[C@@H]21 | 1.95 µM | 4.02 µM | 1.68 µM | 3.24 µM | 1.21 µM | 2.68 µM | 2.28 µM | 9.5 µM | 1.48 µM | 3.04 µM | 2.09 µM | 4.33 µM | 4.03 µM | 20.7 µM | 2.72 µM | 7.11 µM | 1.55 µM | 14.3 µM | 1.84 µM | 3.58 µM
CC(=O)N(C)OC(=O)CC(=O)c1ccccc1 |  | > 100 µM |  | > 100 µM |  | > 100 µM |  | > 100 µM |  | > 100 µM |  | > 100 µM |  | > 100 µM |  | > 100 µM |  | > 100 µM |  | > 100 µM
N#CC1=C(N)Oc2cc3c(cc2C1c1cccs1)OCO3 (stereo not drawn) | 0.775 µM | 11.6 µM | 0.407 µM | > 62.3 µM | 0.377 µM | 15.2 µM | 0.205 µM | > 100 µM | 0.679 µM | > 61.3 µM | 0.58 µM | > 100 µM | 0.373 µM | 24.4 µM | 0.723 µM | > 100 µM | 0.27 µM | > 100 µM | 1.24 µM | > 100 µM
Cn1c(C(N)=O)cc2c1-c1nc(Nc3ccccc3)ncc1CCC2 | 10.3 µM | 33.3 µM | 3.52 µM | 41.7 µM | 10.6 µM | 34.7 µM | 4.65 µM | > 100 µM | 4.86 µM | 24.8 µM | 7.63 µM | 57 µM | 4.2 µM | > 100 µM | 4.18 µM | > 100 µM | 4.47 µM | 33.1 µM | 1.92 µM | 14.3 µM
